Entries after “also recorded” stand apart in the source; their conditions may differ.
Tests used:
[1] = system: NAFLD model of ob/ob mice induced by high-fat diet; test: NAFLD model of ob/ob mice induced by high-fat diet (Example 5); format: in vivo; conditions: 8 weeks
Method: In this experiment, the NAFLD model of ob/ob mice induced by high-fat diet was used to investigate the treatment effect of long-term oral administration of compound DC291407 on NAFLD.
Animal experiment: ob/ob obese mice were divided into 3 groups according to random blood glucose, random body weight, fasting blood glucose, and fasting body weight at the 8th week of age, with 9 mice in each group. There were the model control group (vehicle) and the DC291407 group (20 mg/kg), the positive compound Alogliptin group (20 mg/kg), respectively and mice were administered by oral gavage, twice a day. A group of 6 normal mice in the same cage was set up as a normal control group (WT). Except for the WT group, they were fed with normal feed, and the rest groups were fed with high-fat feed. The administration was continued for 8 weeks. During the administration, the animal's food intake and body weight were monitored. After the last administration, the animals were fasted for 6 hours and allowed to drink water freely. Then the body weight was measured, the blood was collected from the retro-ocular venous plexus, and liver was dissected. Part of the liver was placed in 4% paraformaldehyde, and the rest was stored in a refrigerator at −80° C. This experiment reflected whether the compound had the treating effect on NAFLD by detecting the levels of liver function indexes ALT and AST in the serum, the contents of TC and TG in the liver, the NAS score of liver pathology (HE staining) and the like.

[2] = system: Human hepatic stellate cell line LX-2; test: Inhibition of TGF-β-induced hepatic stellate cell activation (α-SMA, fibronectin by Western Blot); format: cell-based; conditions: LX-2, 10 ng/mL TGF-β plus compound for 24 hours; for inhibition of the activation of hepatic stellate cells HSC: α-SMA and fibronectin by Western Blot
Description: Human hepatic stellate cell line LX-2 was used in cell function experiments. […] By comparing the expression levels of extracellular matrix in the TGF-β group and the cell group in which TGF-β and the compound to be tested were both added at the same time, the efficacy of the compound in alleviating liver fibrosis through hepatic stellate cells was characterized.
The cell experiment procedure was as follows. The human hepatic stellate cell line LX-2 was selected and inoculated into the treated 24-well plate at 7.5×10^4/well. After the cells were adhered overnight and they were subjected to starvation treatment for 12 hours, the cells were treated with 10 ng/mL TGF-β and the corresponding test compound for 24 hours and then protein samples were collected. The expression of extracellular matrix represented by α-smooth muscle myofilament (α-SMA) and fibronectin was detected by Western Blot.

[3] = system: CCl4 induced liver fibrosis model mice; test: CCl4 induced liver fibrosis model mice, long-term oral administration (Example 4); format: in vivo; conditions: for serum ALT level / serum AST level: 20 and 60 mg/kg oral gavage twice a day
Method: In this experiment, CCl4 induced liver fibrosis model mice were used to investigate the effect of long-term oral administration of compound DC291407 on liver fibrosis in the model mice.
Animal experiment: Male C57BL/6j mice were injected intraperitoneally with 2 mL/kg, 10% CCl4 (dissolved in olive oil) three times a week to induce liver fibrosis model. Two weeks after modeling, the blood was taken from the retro-ocular venous plexus of the mice, and serum ALT and AST indexes were detected. According to ALT, AST, body weight and other indexes, the mice were randomly divided into 5 groups, each with 10 mice. There were the model control group (vehicle), DC291407 low-dose group (20 mg/kg), DC291407 high-dose group (60 mg/kg), positive compound OCA low-dose group (20 mg/kg), OCA high-dose group (40 mg/kg), respectively, and mice were administered by oral gavage. DC291407 was administered twice a day, and the other groups were administered once a day. During the administration period, the animals' food intake and body weight were monitored. After 3 weeks of administration, the blood was taken from the retro-ocular venous plexus of the mice, and serum ALT and AST indexes were detected. After 6 weeks of administration, the blood was taken from the retro-ocular venous plexus of the mice and then the mice were killed by dislocation. The liver was taken and weighed, part of the liver was fixed with 4% paraformaldehyde, and part of the liver was frozen at −80° C. During the whole experiment, another 10 mice in the same cage were injected intraperitoneally with the same dose of olive oil as a normal control group (WT). This experiment reflected whether the compound had the effect of relieving liver fibrosis by detecting the levels of liver function indexes ALT and AST in serum, the expression of α-SMA and Col1α1 gene levels in the liver, the content of hydroxyproline (a characteristic amino acid of collagen) in the liver, and liver pathological changes (Sirius scarlet staining) and the like.

[4] = system: CCl4-induced liver fibrosis model mice; test: CCl4-induced liver fibrosis model mice, multiple doses, comparison with sitagliptin (Example 6); format: in vivo; conditions: oral gavage twice a day, 6 weeks
Method: In this experiment, CCl4-induced liver fibrosis model mice were used to investigate the effect of long-term oral administration of compound DC291407 under multiple doses on liver fibrosis in the model mice, and comparison was conducted with the same dose of sitagliptin.
Animal experiment: Male C57BL/6j mice were injected intraperitoneally with 2 mL/kg, 10% CCl4 (dissolved in olive oil) three times a week to induce liver fibrosis model. Two weeks after modeling, the blood was taken from the retro-ocular venous plexus of the mice, and serum ALT and AST indexes were detected. According to ALT, AST, body weight and other indexes, the mice were randomly divided into 8 groups with 10 mice in each group. There were the models control group (vehicle), DC291407 low-dose group (6 mg/kg), DC291407 middle-dose group (20 mg/kg), DC291407 high-dose group (60 mg/kg), sitagliptin low-dose group (6 mg/kg), Sitagliptin middle-dose group (20 mg/kg), sitagliptin high-dose group (60 mg/kg) and system positive compound OCA group (20 mg/kg). The mice were administered by oral gavage. The OCA group was administered once a day, and the other groups were administered twice a day. During the administration period, the animals' food intake and body weight were monitored. After 3 weeks of administration, the blood was taken from the retro-ocular venous plexus of the mice, and serum ALT and AST indexes were detected. After 6 weeks of administration, the blood was taken from the retro-ocular venous plexus of the mice and then the mice were killed by dislocation. The liver was taken and weighed, part of the liver was fixed with 4% paraformaldehyde, and part of the liver was frozen at −80° C. During the whole experiment, another 10 mice in the same cage were injected intraperitoneally with the same dose of olive oil as a normal control group (WT). This experiment reflected whether the compound had the effect of relieving liver fibrosis by detecting the levels of liver function indexes ALT and AST in serum, the content of hydroxyproline (a characteristic amino acid of collagen) in the liver, and liver pathological changes (Sirius scarlet staining) and the like.

[5] = 20 mg/kg oral gavage twice a day
[6] = after 3 weeks of administration
[7] = after 6 weeks of administration

For COC(=O)c1cc2nc(N3CCC[C@@H](N)C3)n(Cc3ccccc3C#N)c(=O)c2s1 [DC291407, (R)-methyl-2-(3-aminopiperidin-1-yl)-3-(2-cyanobenzyl)-4-carbonyl-3,4-dihydrothieno[3,2-d]pyrimidine-6 carboxylic acid], the “effect on serum ALT, AST and liver TG compared with alogliptin” value ([1]; 20 mg/kg each, twice a day) was “equivalent to that of alogliptin”, the “effect on steatosis compared with alogliptin” value ([1]; 20 mg/kg each, twice a day) was “better than that of alogliptin” and the “overall improvement effect on NAS score compared with alogliptin” value ([1]; 20 mg/kg each, twice a day) was “equivalent to that of alogliptin”. For the same compound, the “content of TG in liver tissue” value [1, 5] was “significantly reduce”, the “level of ALT in serum” value [1, 5] was “significantly reduce” and the “level of AST in serum” value [1, 5] was “significantly reduce”. The “lobular inflammation (NAS score, HE stained liver sections)” value [1, 5] was “a certain alleviating effect”, the “steatosis (NAS score, HE stained liver sections)” value [1, 5] was “improve steatosis” and the “inhibitory activity on HSC activation compared with positive control Alogliptin” value [2] was “better than that of the positive control Alogliptin”. The “inhibition of the activation of hepatic stellate cells HSC” value [2] was “concentration-dependently inhibited; also recorded: had an inhibitory effect”, the “serum ALT level” value [3, 6] was “no decrease” and the “serum AST level” value [3, 6] was “no decrease”. The “collagen content in the liver (Sirius scarlet stained pathological sections, quantitative analysis)” value [3, 7] was “reduce the collagen content in the liver without statistical difference”, the “content of hydroxyproline in liver tissues” value [3, 7] was “reduced” and the “expression of Col1α1 mRNA in liver tissues” value [3, 7] was “significantly down-regulated”. The “expression of α-SMA mRNA in liver tissues” value [3, 7] was “significantly down-regulated”, the “serum ALT level” value [3, 7] was “significantly reduced” and the “serum AST level” value [3, 7] was “significantly reduced”. The “ALT level in serum” value ([4]; high-dose group 60 mg/kg) was “significantly reduce”, the “collagen content in the liver (Sirius scarlet stained sections, quantitative analysis)” value ([4]; high-dose group 60 mg/kg) was “reduce the collagen content in the liver without dose dependence” and the “ALT level in serum” value ([4]; low-dose group 6 mg/kg) was “significantly reduce”. The “AST level in serum” value ([4]; low-dose group 6 mg/kg) was “significantly reduce”, the “collagen content in the liver (Sirius scarlet stained sections, quantitative analysis)” value ([4]; low-dose group 6 mg/kg) was “reduce the collagen content in the liver without dose dependence” and the “content of hydroxyproline in liver tissues” value ([4]; low-dose group 6 mg/kg) was “reduced the content of hydroxyproline in liver tissues without statistics significance”. The “ALT level in serum” value ([4]; middle-dose group 20 mg/kg) was “significantly reduce”, the “AST level in serum” value ([4]; middle-dose group 20 mg/kg) was “significantly reduce” and the “collagen content in the liver (Sirius scarlet stained sections, quantitative analysis)” value ([4]; middle-dose group 20 mg/kg) was “reduce the collagen content in the liver without dose dependence”.
For N#Cc1ccccc1Cn1c(N2CCC[C@@H](N)C2)nc2cc(C(=O)O)sc2c1=O [DC291410, (R)-2-(3-aminopiperidin-1-yl)-3-(2-cyanobenzyl)-4-carbonyl-3,4-dihydrothieno[3,2-d]pyrimidine-6 carboxylic acid], the “inhibitory activity on HSC activation compared with positive control Alogliptin” value [2] was “better than that of the positive control Alogliptin” and the “inhibition of the activation of hepatic stellate cells HSC” value [2] was “concentration-dependently inhibited”.
With N[C@@H](CC(=O)N1CCn2c(nnc2C(F)(F)F)C1)Cc1cc(F)c(F)cc1F [sitagliptin, reference compound] the “ALT level in serum” value ([4]; high-dose group 60 mg/kg) was “significantly reduced”, the “AST level in serum” value ([4]; high-dose group 60 mg/kg) was “significantly reduced” and the “ALT level in serum” value ([4]; low-dose group 6 mg/kg) was “no effect”. For the same compound, the “AST level in serum” value ([4]; low-dose group 6 mg/kg) was “no effect”, the “collagen content in the liver (Sirius scarlet stained sections, quantitative analysis)” value ([4]; low-dose group 6 mg/kg) was “significantly reduce the collagen content in the liver” and the “AST level in serum” value ([4]; middle-dose group 20 mg/kg) was “significantly reduced”.

Reference: patent US11730742B2, “Pharmaceutical use of thiophene [3,2-d] pyrimidine-4-ketone compound” (SHANGHAI INSTITUTE OF MATERIA MEDICA, CHINESE ACADEMY OF …, priority 2018, dated 2023)
